Source: patent publication US7253295B2, “Chloride channel opener” (Sucampo AG, priority 2001, dated 2007)

Assays:
[1] = test system: AS-HBE cells; assay: Short-circuit current in AS-HBE cells (Test Example 3); type: cell-based, human; details: 250 nM
Protocol: AS-HBE is a human bronchial epithelial (HBE) cell line expressing the first 131 nucleotides of CFTR in the antisense direction (antisense CFTR 16HBE14o- cells, HBE-AS; also called AS-HBE). As a result, AS-HBE cells lack CFTR transcripts and lack functional CFTR. However, AS-HBE cells do express functional ClC-2 in a manner identical to the parental cell line, 16HBE14o- cells, from which they were derived. AS-HBE cells were maintained at 37° C. in 5%/95% CO2/O2 in Minimal Essential Medium (MEM; GIBCO/Invitrogen, Carlsbad, Calif.) supplemented with Earl's salt, L-glutamine (GIBCO/Invitrogen), 10% heat-inactivated fetal bovine serum, 100 units/ml penicillin, 100 μg/ml streptomycin sulfate and 400 μg/ml G-418 (GIBCO/Invitrogen). The cells were grown in air-liquid interface on Biocoat inserts (Fisher Scientific, Chicago, Ill.), coated with human plasma fibronectine (GIBCO/Invitrogen) and vitrogen (Cohesion Technologies, Palo Alto, Calif.).
According to the same manner as described in Example 2, Short-circuit current measurements in the AS-HBE cells were carried out. Changes in short-circuit current (ΔIsc) were normalized to the filter area (0.3 cm^2) and reported as ΔIsc/cm^2.
Test compounds were used at a final concentration of 250 nM.

[2] = test system: non-transfected HEK cells; assay: Whole cell patch clamp, non-transfected HEK cells (Test Example 1); type: cell-based, human; details: for Effect on Cl currents in non-transfected cells (in words): 1 μM; for Cl channel activity: 1 μM in 1% DMSO, non-transfected HEK cells
Excerpt: Whole cell patch clamp method was used to assess the effect of compound 1 (13,14-dihydro-15-keto-16,16-difluoro-PGE1) and compound 2 (13,14-dihydro-15-keto-16,16-difluoro-18 (S)-methyl-PGE1) on recombinant hClC-2 chloride channel. In this example, effects of the respective compounds on Human Epithelial Kidney (HEK) cells transfected with human ClC-2 (hClC-2) were examined, and the results were compared with those on non-transfected HEK cells.
ClC-2 transfected human epithelial kidney (HEK) cells were prepared and used. HEK-293 cells obtained from American Type Culture Collection (ATCC; Manassas, Va.) were transfected with His- and T7-tagged human ClC-2 cDNA in the mammalian expression vector pcDNA3.1 (GIBCO/Invitrogen) using Lipofectamine (GIBCO/Invitrogen) for 5 h at 37° C. in serum-free medium. Cells were then resuspended in the serum-containing medium and cultured in the presence of 300 μg/ml G-418 (GIBCO/Invitrogen). The surviving cells were then expanded, tested to confirm expression of Cl- current and ClC-2 mRNA, and the cells expressing ClC-2 mRNA were frozen to store. Upon studies, the stored cells were thawed and maintained at 37° C. in 5%/95% CO2/O2 in MEM (GIBCO/Invitrogen) supplemented with 5% inactivated horse serum, 0.1 mM nonessential amino acids, 2 mM L-glutamine, 1 mM sodium pyruvate, 100 units/ml penicillin, and 100 μg/ml streptomycin sulfate.
In the whole cell patch clamp measurements, currents were elicited by voltage clamp pulses (1500 ms duration) between +40 mV and −140 mV, in 20 mV increments, from the beginning holding potential of −30 mV. Currents were measured 50-100 ms after start of the pulse. The external solution was normal Tyrode solution containing 135 mM NaCl, 1.8 mM CaCl2, 1 mM MgCl2, 5.4 mM KCl, 10 mM glucose, and 10 mM HEPES (pH 7.35). The pipette solution was 130 mM CsCl, 1 mM MgCl2, 5 mM EGTA, and 10 mM HEPES (pH 7.35); also present in the pipette was 1 mM ATP—Mg^2+ (pH 7.4).
Pipettes were prepared from borosilicate glass and pulled by a two stage Narashige puller to give 1-1.5 MΩ resistance. Data were acquired with Axopatch CV-4 headstage with Digidata 1200 digitizer and Axopatch 1D amplifier. Data were analyzed using pClamp 6.04 (Axon Instruments, Foster City, Calif.), Lotus 123 (IBM) and Origin (Microcal) software.
Compound 1 and compound 2 were used at a final concentration of 1 μM in 1% DMSO.

[3] = biological target: T1, recombinant human ClC-2 Chloride Channels (Homo sapiens, UniProt P51788); assay: Whole cell patch clamp, ClC-2 transfected HEK cells, current increase (Test Example 4); type: cell-based; details: 100 nM, change from control
T1 construct: His; T7; expressed in transfected cells; host or cells: HEK-293 (ATCC), pcDNA3.1, G-418 selected
T1 sequence (P51788 1-898): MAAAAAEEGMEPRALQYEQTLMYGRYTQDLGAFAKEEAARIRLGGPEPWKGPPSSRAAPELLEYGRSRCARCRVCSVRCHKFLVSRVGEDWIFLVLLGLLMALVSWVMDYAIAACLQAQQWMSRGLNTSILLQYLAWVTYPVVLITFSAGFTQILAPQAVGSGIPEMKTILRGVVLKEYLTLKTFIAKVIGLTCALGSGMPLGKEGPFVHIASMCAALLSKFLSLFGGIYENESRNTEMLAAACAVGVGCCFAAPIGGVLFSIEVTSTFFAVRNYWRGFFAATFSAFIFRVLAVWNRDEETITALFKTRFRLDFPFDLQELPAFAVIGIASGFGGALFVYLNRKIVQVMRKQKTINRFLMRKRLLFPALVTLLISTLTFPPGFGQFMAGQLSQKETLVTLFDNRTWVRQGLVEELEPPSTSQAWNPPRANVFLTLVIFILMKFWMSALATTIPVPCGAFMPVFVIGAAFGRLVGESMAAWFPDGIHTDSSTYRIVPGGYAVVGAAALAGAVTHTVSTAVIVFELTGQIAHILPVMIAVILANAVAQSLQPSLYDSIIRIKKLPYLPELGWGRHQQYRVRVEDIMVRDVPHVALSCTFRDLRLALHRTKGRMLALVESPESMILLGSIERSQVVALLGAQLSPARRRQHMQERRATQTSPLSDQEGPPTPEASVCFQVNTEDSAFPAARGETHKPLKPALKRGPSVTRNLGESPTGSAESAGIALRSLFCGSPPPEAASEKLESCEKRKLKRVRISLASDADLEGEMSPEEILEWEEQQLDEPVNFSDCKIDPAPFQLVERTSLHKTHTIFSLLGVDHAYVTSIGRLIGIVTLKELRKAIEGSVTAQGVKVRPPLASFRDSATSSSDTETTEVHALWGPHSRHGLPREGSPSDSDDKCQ
Protocol: According to the same manner as described in Example 1, whole cell patch clamp measurements were carried out.
Test compounds were used at a final concentration of 100 nM.

| Compound | Changes in short-circuit currents (Δlsc) [1] | Effect on Cl currents in non-transfected cells (in words) [2] | Cl channel activity [2] | Activation of ClC-2 channels ΔpA/pF [3] |
| --- | --- | --- | --- | --- |
| CCCCC(F)(F)[C@@]1(O)CC[C@H]2[C@@H](CC(=O)[C@@H]2CCCCCCC(=O)O)O1 [Compound 1, (−)-7-[(2R,4aR,5R,7aR)-2-(1,1-difluoropentyl)-2-hydroxy-6-oxoperhydrocyclopenta[b]pyran-5-yl]heptanoic acid] | 4.3 μA/cm^2 | did not increase | 0.035 ± 0.014 nS/pF | 39.8 pA/pF |
| CC[C@H](C)CC(F)(F)C(=O)CC[C@H]1[C@H](O)CC(=O)[C@@H]1CCCCCCC(=O)O [Compound 2, 13,14-dihydro-15-keto-16,16-difluoro-18(S)-Methyl-PGE1] | 9.0 μA/cm^2 | did not increase | 0.036 ± 0.010 nS/pF | 22.6 pA/pF |
